These are literature values, as cited in the CATMoS acute toxicity set (Mansouri et al. 2021).

Each structure is given as a SMILES string.

The nature of this data set: rat acute oral toxicity. The conditions noted are these: in vivo.
In the case of `O=[N+]([O-])c1cc(Cl)cc(-c2cc(Cl)cc([N+](=O)[O-])c2O)c1O`, the LD50 is 10 mg/kg.

Regarding `C=CCN(CC=C)CC=C`, the LD50 was 1030 mg/kg.

As to `CC(C)c1ccc(C(C)(C)O)cc1`, the LD50 was 11300 mg/kg.

Consider `CCCCN(C)N=O`, for which the LD50 is 130 mg/kg.

On to `C1OCC(COCC2COCO2)O1` (stereo unspecified), for which the LD50 was 5150 mg/kg.

For `Cc1cnccn1`, the LD50 is 1800 mg/kg.

For `CCCOc1c(Cl)c(Cl)c(Cl)c(Cl)c1Cl`, the LD50 is 430 mg/kg.

As to `CC(=O)Oc1ccc(C)cc1`, the LD50 is 1900 mg/kg.

As for `CC(C)c1s[nH]c2nc(C(C)(C)C)nc(=O)c1-2`, the LD50 is 10200 mg/kg.

Turning to `CCOP(=S)(OCC)SC1CCC2C=CCC1S2` (stereo unspecified), the LD50 was 140 mg/kg.

`C=C(C)CCl`: the LD50 was 848 mg/kg.

Consider `c1ccc(NC[Si]23OCCN(CCO2)CCO3)cc1`, for which the LD50 is 0.328 mg/kg.

As to `CCOC(CC(OCC)OCC)OCC`, the LD50 was 1610 mg/kg.

For the compound `CCCCCCCCc1ccc(C)cc1O`, the LD50 is 4000 mg/kg.

`CCCCCCCCOP(=O)(O)OCCC(Cl)Cl`: the LD50 is 10300 mg/kg.

For `O=C(Nc1ccc(Br)cc1)c1cc(Br)cc(Br)c1O`, the LD50 was 410 mg/kg.

As to `COP(=S)(OC)SCSCCOC(N)=O`, the LD50 is 44 mg/kg.

For the compound `O=c1cc[nH]c(=O)o1`, the median lethal dose (LD50) was 850 mg/kg.

As for `C=COCCOCCCC`, the LD50 is 3100 mg/kg.

In the case of `CCn1cc(C(=O)O)c(=O)c2cnc(N3CCNCC3)nc21`, the LD50 was 16000 mg/kg.

In the case of `CNC(=O)Oc1ccccc1C1OCC=CCO1`, the LD50 was 35 mg/kg.

Regarding `CCN(CC)C(=O)CCl`, the LD50 is 500 mg/kg.

With `CCOP(=S)(OCC)OC(=CCl)c1ccc(Cl)cc1Cl`, the LD50 was 10 mg/kg.

Take `C=COCCOC(=O)C(=C)C`: the LD50 was 5940 mg/kg.

For the compound `COc1cc2nc(N3CCN(C(=O)OCC4CC4)CC3)nc(N)c2cc1OC`, the LD50 is 1150 mg/kg.

`O=C(O)c1cc(N=Nc2ccc(-c3ccc(N=Nc4c(O)ccc(/N=N/c5cc(S(=O)(=O)O)ccc5O)c4O)cc3)cc2)ccc1O`: the LD50 is 12100 mg/kg.

For the compound `CN1[C@@H]2CC[C@H]1C[C@@H](OC(c1ccccc1)c1ccc(Cl)cc1)C2` (stereo partly specified), the LD50 is 364 mg/kg.

In the case of `CCC(Br)(CC)C(=O)OCC(Br)(Br)Br`, the LD50 is 2500 mg/kg.

Turning to `CC(Cl)CO` (stereo unspecified), the LD50 was 218 mg/kg.

Consider `CCCCCCCCCCOS(=O)(=O)O`, for which the LD50 is 1950 mg/kg.

Take `CCCCC1C(=O)NC(=O)N(C2CCCCC2)C1=O` (stereo unspecified): the LD50 is 1120 mg/kg.

As for `CCCCO[Si](OCCCC)(OCCCC)N(C)C1CCCCC1`, the LD50 is 3550 mg/kg.

With `Cc1[nH]nc(Cl)c1[N+](=O)[O-]`, the LD50 is 350 mg/kg.

`CCOP(=S)(Oc1ccc(C#N)cc1)c1ccccc1` (stereo unspecified): the LD50 is 28.5 mg/kg.

For the compound `Cc1ccc(C(C)C)cc1`, the LD50 is 4750 mg/kg.

Consider `CCCCCCCCCCCCCCCN`, for which the LD50 was 660 mg/kg.

As for `CNC(C)Cc1ccc(Cl)cc1` (stereo unspecified), the LD50 was 110 mg/kg.

In the case of `O=P(O)(O)CN(CP(=O)(O)O)CP(=O)(O)O`, the LD50 was 17800 mg/kg.

`Cc1ccc(-c2nc3n(c2C=NNC(=O)CN(C)C)CCS3)cc1`: the LD50 is 800 mg/kg.

For `CCC(c1ccccc1)c1c(O)c2ccccc2oc1=O` (stereo unspecified), the LD50 is 200 mg/kg.

With `CCO[Si](CCCC#N)(OCC)OCC`, the LD50 is 4920 mg/kg.

As for `CNCC(O)c1ccc(OC(=O)C(C)(C)C)c(OC(=O)C(C)(C)C)c1` (stereo unspecified), the LD50 is 183 mg/kg.

With `CCN(CC)C(=O)Cl`, the LD50 is 2700 mg/kg.

`CCNP(=S)(OC)Oc1cc(Cl)c(Cl)cc1Cl` (stereo unspecified): the LD50 was 450 mg/kg.

In the case of `CCc1nccnc1C`, the LD50 was 600 mg/kg.

As to `NC1=C(Cl)C(=O)c2ccccc2C1=O`, the LD50 was 1360 mg/kg.

Regarding `O=C(C=CC(=O)OCCCl)OCCCl`, the LD50 is 71 mg/kg.

On to `COP(=S)(OC)SC`, for which the LD50 is 15 mg/kg.

In the case of `CCN(CC)C(=O)[C@]1(c2ccccc2)C[C@@H]1CN`, the LD50 is 213 mg/kg.

Turning to `NNC(=O)CSc1cc(Oc2ccccc2)ncn1`, the LD50 was 220 mg/kg.

Regarding `CCOC(=O)CN(C(=O)CCl)c1c(CC)cccc1CC`, the LD50 was 2300 mg/kg.

Regarding `Cc1cc(Cl)cc(O)c1O`, the LD50 was 1410 mg/kg.

As to `CCN(CC)CCOC(=O)c1cccnc1`, the LD50 was 8400 mg/kg.

In the case of `COc1ccc(C(Oc2ccccc2)C2=NCCCN2)cc1F` (stereo unspecified), the LD50 is 1000 mg/kg.

As for `COC(=O)C[N+](=O)[O-]`, the LD50 is 3770 mg/kg.

Turning to `COP(=O)(OC1CCCCC1)Sc1ccc(Cl)cc1` (stereo unspecified), the LD50 is 160 mg/kg.

`NC(CCN1CCCCCC1)=NO`: the LD50 is 500 mg/kg.

On to `CNC(=O)ON=C1CCCC1(C)[N+](=O)[O-]` (stereo unspecified), for which the 50% lethal dose (LD50) is 4 mg/kg.

With `Oc1ccccc1S`, the LD50 was 178 mg/kg.

`N#CCCl`: the LD50 is 220 mg/kg.

As for `OCCNCC(O)CNCCO`, the LD50 was 7200 mg/kg.

In the case of `O=C(O)CCCO`, the LD50 was 9690 mg/kg.

On to `COP(=O)(OC)OC(Cl)C(Cl)(Cl)Cl` (stereo unspecified), for which the LD50 was 14 mg/kg.

For `O=C1CCC(C(=O)NC2CC2c2ccccc2)N1` (stereo unspecified), the LD50 was 96 mg/kg.

Consider `CNC(=O)Oc1ccccc1C1OCC(C)(C)O1` (stereo unspecified), for which the LD50 was 110 mg/kg.

Take `S=c1[nH]c2cc(Cl)ccc2o1`: the LD50 is 1000 mg/kg.

Broadly, the LD50 is the dose at which mortality reaches 50%.
